Here are results for 5 compounds from patent publication US4585773A, “Isoindolinyl-alkyl-piperazines” (Bristol-Myers Company, priority 1984, dated 1986).

The nature of assay [1]: conscious rat diuretic screen of Lipschitz (Table I). Conditions: female Sprague Dawley rats; for response vs control in vivo at 3 mg/kg / response vs control in vivo at 30 mg/kg / response vs control in vivo at 0.3 mg/kg: Rattus norvegicus, po. It is filed as in vivo, rat (female Sprague Dawley; male Okamoto-Aoki). The protocol:
With respect to diuretic utility there can be mentioned the conscious rat diuretic screen of Lipschitz, et al. (J. Pharmacol. Exp. Therap. 79, 97-110 (1943)). In this test, dose response assays of diuretic, natruiretic and kaliuretic activity are determined by oral administration of the test substance. The compounds synthesized in Examples I-XI were tested for diuretic […]. The compound of Example I was tested as its monohydrochloride 2-propanolate hydrate, i.e. as C22 […] ClN4 O4 S.HCl. 0.2(CH3)2 CHOH.0.15H2 O. Testing was carried out by the diuretic screen of Lipschitz, et al. described previously. In Table I below Volume Ratio is the ratio of total volume excreted for the test comuound compared to the total volume excreted for the control, Na^+ Ratio is the Na^+ excreted for the test compound compared to the Na^+ excreted for the control, K^+ Ratio is the K^+ excreted for the test compound compared to the K^+ excreted for the control. Female Sprague Dawley rats were used in Test Nos. 1, 2, 6, 7, 11-29. Male Okamoto-Aoki rats were used in Test Nos. 3-5 and 8-10 and testing for antihypertensive activity was carried out simultaneously on the Test Nos. 3-5 rats. In some instances, compounds were retested at the same dose level.

For assay [2], the system named is Spontaneously Hypertensive rat. Nature of the assay: antihypertensive activity, Spontaneously Hypertensive Rat (Table II). The assay is classed as in vivo. The settings on record: for antihypertensive effect (in words): conclusion from Table II (SHR, and DOCA for Examples I-IV). The protocol: Spontaneously Hypertensive Rat Male rats weighing 300-400 g, previously conditioned to the procedure, are prewarmed in a heating chamber (30° C.) for 10-20 min. and subsequently restrained in a wire holder at that temperature. Systolic blood pressure and heart rate are measured by the tailcuff technique using a pneumatic pulse transducer and a biotachometer before, and 2, 4, and 24 hours after oral administration of vehicle (0.25% Methocel in water) or test compounds suspended in vehicle at a dose volume equivalent to 5 ml/kg. Blood pressure and heart rate data are reported as changes from zero-hour measurements with vehicle control groups run periodically to confirm that the vehicle has no effect. Testing was carried out on the compounds of Examples I-XII for antihypertensive activity. In the case of all the compounds testing was carried out on the Spontaneously Hypertensive rat as described hereinbefore. In the case of the compounds of Examples I-IV testing was also carried out on the DOCA-salt Hypertensive Rat. The compound of Example I was tested as its monochloride 2-propanolate hydrate, i.e. as C22 […] ClN4 O4 S.HCl.0.2(CH3)2 CHOH.0.15H2 O in Tests 1-5; and as the 3/4 mole hydrochloride, i.e. C22 […] ClN4 O4 S: 3/4 HCl in Tests 3a, 4a, 5a-5d. Test results are set forth in Table II below wherein SHR stands for Spontaneously Hypertensive rat, DOCA stands for DOCA-salt Hypertensive Rat, ΔBP stands for the change in systolic blood pressure in mm Hg, ΔHR stands for the change in mean heart rate in beats per minute and the times set forth are the times after dosing. A peak change in ΔBP of more than 20 is considered as indicating activity.

Assay [3] deals with α blocking activity (phenylephrine). Nature of the assay: in vivo α blocking activity, phenylephrine (PE) as α-agonist (Table III). Set-up: species or system rat; ED50: unit not given beside the values. Conditions: for in vivo α blocking activity (in words): conclusion from Table III. The protocol: In this example the compounds of Examples I (modified), II, III, V, VI, VII, VIII, IX and XI were tested in rats for in vivo α blocking activity according to methodology described at page 312 of Deitchman, et al., Journal of Pharmacological Methods, 3, 311-321 (1980). In this test phenylephrine (PE below) or norepinephrine (NE below) was administered as an α-agonist to the rats before and after dosing with the test drug and the average interpolated dose or PE/NE effecting a 50 mm Hg increase in mean arterial blood pressure was determined. Table III below records the results. In such Table, ED50 stands for such average interpolated dose and Average Dose Shift stands for the average ratio of ED50 after drug administration to ED50 before drug administration. The compound of Example I was tested as its monochloride 2-propanolate hydrate, i.e. as C22 H27 ClN4 O4 S.HCl 0.2(CH3)2 CHOH.0.15H2 O in Tests 1-5 and as the 3/4 mole hydrochloride, i.e. C22 H27 ClN 4 O4 S.3/4HCL in Tests 2a and 3a. The route was intravenous except in the case of the runs of Test Nos. 2a, 3, 3a, 26-29 the route was oral.

Assay [4] deals with α1. As to the kind of experiment: in vitro α1 binding, [3H]WB-4101 (Table IV). The protocol: (§1) In this Example the compounds of Examples I-XI were tested in vitro for α1 and α2 binding. The compound of Example I was tested as its monochloride 2-propanolate hydrate, i.e. as C22 […] CLN4 O4 S .HCl.0.2(CH3)2 CHOH 0.15H2 O. In the testing specific brain tissues were prepared as sources of binding sites. Aliquots of the washed members are incubated with a low concentration of […]. After incubation at suitable temperature, the reaction mixture is treated to separate the membrane-bound radioligand Radioactivity is measured. Linear regression analysis of the probit value for the percent of binding occurring in the presence of varying concentrations of the compound of interest plotted against the concentration of the compound yields concentrations which inhibit 50% specific binding, the IC50. The assay buffer is 50 mM Hepes.KOH, pH 7.4. The ligand is [^3 H]WB-4101 from New England Nuclear for α1 and [^3 H]Clonidine from New England Nuclear for α2. The results are considered against phentolamine methanesulfonate (Reference) which is considered a good α-binder.

In assay [5] the target is α2. As to the kind of experiment: in vitro α2 binding, [3H]Clonidine (Table IV). The protocol:
as §1

The mark [6] stands for this setting: 3 mg/kg oral, read-out: K+ Ratio.
[7] abbreviates: 3 mg/kg oral, read-out: Na+ Ratio.
[8] abbreviates: 3 mg/kg oral, read-out: Volume Ratio.
Setting [9] is: 30 mg/kg oral, read-out: K+ Ratio.
Setting [10] is: 30 mg/kg oral, read-out: Na+ Ratio.
[11] abbreviates: 30 mg/kg oral, read-out: Volume Ratio.
Setting [12] is: ED50 after/before drug, PE, dose 10, intravenous.
Setting [13] is: [3H]WB-4101, brain tissue, 50 mM Hepes.KOH, pH 7.4, read-out: α1 Binding IC50.
[14] abbreviates: [3H]Clonidine, brain tissue, 50 mM Hepes.KOH, pH 7.4, read-out: α2 Binding IC50.

pIC50: −log10 of the molar value. “And” between values parts separate entries of the source, which are not always exact repeats. Identical values can stand only once. Counter-ions that a name gives are not always drawn. Like-named read-outs stand apart in the source and are kept apart here.

In general, pIC50 refers to −log10 of the IC50, conventionally taken in molar units. Turning to `NS(=O)(=O)c1cc2c(cc1Cl)CN(CCCN1CCN(c3cccc(C(F)(F)F)c3)CC1)C2=O` [Example IX, 6-chloro-2,3-dihydro-3-oxo-2-[3-[4-[3-(trifluoromethyl)phenyl]-1-piperazinyl]propyl]-1H-isoindole-5-sulfonamide hydrochloride hemihydrate], the entries for the “Urinary Na/K (Test Compound)” value in assay [1] (3 mg/kg oral) and in assay [1] (30 mg/kg oral) were 2.99 and 3.67, respectively. Moreover, the response vs control in vivo at 3 mg/kg came to 106% in assay [1] (setting [6]), 127% in assay [1] (setting [7]) and 102% in assay [1] (setting [8]). The response vs control in vivo at 30 mg/kg in assay [1] (setting [9]) amounted to 140%; in assay [1] (setting [10]), 212%; in assay [1] (setting [11]), 184%. In assay [2] (SHR, 30 mg/kg oral), the “ΔBP 2 hours” value is listed as -34 ± 14 mm Hg. In addition, in assay [2] (SHR, 30 mg/kg oral), the “ΔBP 4 hours” value is -32 ± 10 mm Hg. The “ΔHR 2 hours” value in assay [2] (SHR, 30 mg/kg oral) is recorded as 6 ± 17 beats per minute. In assay [2] (SHR, 30 mg/kg oral), the “ΔHR 4 hours” value is given as 0 ± 14 beats per minute. For the same compound, in assay [2], the “antihypertensive effect (in words)” value is listed as “good antihypertensive effect without significantly affecting heart rate”. Further, the figures for the “Average Dose Shift” value in assay [3] (setting [12]) and in assay [3] (iv) were 6 ± 0.6 and 2.2, respectively. In addition, the “in vivo α blocking activity (in words)” value in assay [3] was “weakly active”. This compound came in with an ED50 in assay [3] (iv) of 11.3. For the same compound, the pIC50 in assay [4] (setting [13]) was 6.97; in assay [5] (setting [14]), under 6.00.
`NS(=O)(=O)c1cc2c(cc1Cl)CN(CCCN1CCN(Cc3ccccc3)CC1)C2=O` [Example V, 6-chloro-2,3-dihydro-3-oxo-2-[3-[4-(phenylmethyl)-1-piperazinyl]propyl]-1H-isoindole-5-sulfonamide]: the results for the “Urinary Na/K (Test Compound)” value in assay [1] (0.3 mg/kg oral) and in assay [1] (30 mg/kg oral) were 2.33 and 4.14, respectively. Also, the response vs control in vivo at 0.3 mg/kg in assay [1] (0.3 mg/kg oral, read-out: K+ Ratio) came out at 99%; in assay [1] (0.3 mg/kg oral, read-out: Na+ Ratio), 97%; in assay [1] (0.3 mg/kg oral, read-out: Volume Ratio) it was 89%. Moreover, the response vs control in vivo at 3 mg/kg in assay [1] (setting [7]) came to 145%; in assay [1] (setting [8]) it was 128%. The response vs control in vivo at 30 mg/kg in assay [1] (setting [9]) is 133%; in assay [1] (setting [10]), 271%; in assay [1] (setting [11]), 220%. The “ΔBP 2 hours” value in assay [2] (SHR, 30 mg/kg oral) is on record as -27 ± 10 mm Hg. Also, in assay [2] (SHR, 30 mg/kg oral), the “ΔBP 4 hours” value is -30 ± 14 mm Hg. The “ΔHR 2 hours” value in assay [2] (SHR, 30 mg/kg oral) is recorded as -6 ± 15 beats per minute. In assay [2] (SHR, 30 mg/kg oral), the “ΔHR 4 hours” value is given as -39 ± 14 beats per minute. In addition, in assay [2], the “antihypertensive effect (in words)” value is on record as “good antihypertensive effect without significantly affecting heart rate”. In addition, in assay [3] (setting [12]), the “Average Dose Shift” value amounted to 1.7 ± 0.3. The pIC50 in assay [4] (setting [13]) is 6.03; in assay [5] (setting [14]), 5.75.
As for `Cl.N#Cc1cccnc1N1CCN(CCCN2Cc3cc(Cl)c(S(N)(=O)=O)cc3C2=O)CC1` [Example VI, 6-chloro-2-[3-[4-(3-cyano-2-pyridinyl)-1-piperazinyl]propyl]-2,3-dihydro-3-oxo-1H-isoindole-5-sulfonamide hydrochloride], the “Urinary Na/K (Test Compound)” value is 3.55 in assay [1] (3 mg/kg oral) and 3.90 in assay [1] (30 mg/kg oral). Further, the response vs control in vivo at 3 mg/kg was found to be 98% in assay [1] (setting [6]), 169% in assay [1] (setting [7]) and 153% in assay [1] (setting [8]). Further, the response vs control in vivo at 30 mg/kg was found to be 111% in assay [1] (setting [9]), 204% in assay [1] (setting [10]) and 174% in assay [1] (setting [11]). For the same compound, the “ΔBP 2 hours” value in assay [2] (SHR, 30 mg/kg oral) was -17 ± 10 mm Hg. For the same compound, in assay [2] (SHR, 30 mg/kg oral), the “ΔBP 4 hours” value is reported as -7 ± 11 mm Hg. Further, in assay [2] (SHR, 30 mg/kg oral), the “ΔHR 2 hours” value is listed as 6 ± 41 beats per minute. The “ΔHR 4 hours” value in assay [2] (SHR, 30 mg/kg oral) is -10 ± 18 beats per minute. Besides, the results for the “Average Dose Shift” value in assay [3] (setting [12]) and in assay [3] (iv) were 27 ± 3 and 3 ± 0.2, respectively. Also, in assay [3], the “in vivo α blocking activity (in words)” value is “active as in vivo α blockers”. The ED50 in assay [3] (iv) is recorded as 9.8. The negative logarithm of the IC50 (pIC50) in assay [4] (setting [13]) was 6.52; in assay [5] (setting [14]), 5.48.
As for `COc1ccc(F)cc1N1CCN(CCCN2Cc3cc(Cl)c(S(N)(=O)=O)cc3C2=O)CC1` [Example XII, 6-chloro-2,3-dihydro-2-[3-[4-(3-fluoro-6-methoxyphenyl)-1-piperazinyl]propyl]-3-oxo-1H-isoindole-5-sulfonamide], in assay [2] (SHR, 30 mg/kg oral), the “peak change at 2 hours in ΔBP” value is reported as -64 mm Hg. The “antihypertensive effect (in words)” value in assay [2] is reported as “good antihypertensive effect without significantly affecting heart rate”.
For the compound `Cc1ccc(N(CC2=NCCN2)c2cccc(O)c2)cc1` [phentolamine methanesulfonate, reference compound], the pIC50 in assay [4] (phentolamine methanesulfonate reference run in the α1 tests, read-out: Reference IC50) is 8.43 and 8.46 and 8.32; in assay [5] (phentolamine methanesulfonate reference run in the α2 tests, read-out: Reference IC50), 8.26 and 8.51.
